# Results published in patent US5374772A, “Substituted benzoic acids, inhibitors of phospholipases A2” (Hoffmann-LaRoche Inc., priority 1993, dated 1994).
# System: paw edema induced by Naja naja venom phospholipase A2
# Assay: Phospholipase A2 Rat Paw Edema
# Format: in vivo, Lewis rats
# Details: 30 mg/kg ip, measured 2 hours after PLA2 injection
compound,measurement,value
"CCCCCCCCCCCCCCCCCCOc1cc(OC(=O)C(c2ccccc2)c2ccccc2)cc(C(=O)O)c1 [Example 11, 3-(Octadecyloxy)-5-(2,2-diphenyl-1-oxoethoxy) benzoic acid]",inhibition of edema (PLA2 rat paw edema),29%
